Results: patent US8889902B2, “Acetylsalicylic acid salts” (priority 2009, dated 2014)
Marks after values point to notes of the source that are not given here.

Experiments:
[1] = system: abdominal constrictions in writhing test model; experiment: Mouse writhing test (acetic acid i.p.); assay type: in vivo, mice
Protocol: In investigating the analgesic, anti-inflammatory and antipyretic effects of MASA methods widely used in evaluation of NSAIDs were employed. Mongrel white laboratory mice and Wistar rats were used in experiments. Animals were kept in groups of 7-8 in adequate cages in climatized rooms at 22±1° C., relative humidity 60±5% and 12/12-hour light/darkness cycle with free access to feed and water.
Aqueous solutions of test substances were prepared ex tempore. In each experimental series a control group was used that received an identical volume of water p.o.
Nociceptive reaction was evaluated by chemical irritation method—writhing test (Charaborty A et al, Indian J of Pharmacology 2004; 36(3):148-150). Animals received i.p. 0.25 ml of 0.75% aqueous acetic acid solution: After the injection animals were placed separately in special boxes and observed for 10 minutes. The number of abdominal constrictions was registered. Analgesic activity was manifested by reduction of the number of abdominal constrictions in the 10 minutes period. Test substances were introduced 30 min before the irritating agent. The level of analgesia was expressed as analgesic index calculated as follows: A=(Cc−Ct)/Cc·100%, where A—Analgesic index Cc—number of contractions in control group, Ct—number of contractions in the test group.

[2] = system: response to thermal irritation (hot plate); experiment: Mouse hot plate test; assay type: in vivo, mice; settings: 100 mg/kg p.o.
[3] = system: hyperthermia induced by intramuscular injection of pyrogenal; experiment: Antipyretic activity, pyrogenal hyperthermia (curative mode); assay type: in vivo, rats; settings: 100 mg/kg p.o. 2 h after pyrogenal
Protocol: The antipyretic effect of test substances in therapeutic (curative) mode was investigated on 48 rats with body mass 182-205 g, with hyperthermia induction by injecting pyrogenal in dose 100 μg (Shwarz G Y, Syubaev R D, Vedomosti NCEG lekarstvennyh sredstv MZ RF 2000; 1:44-50 (Rus). Test substances were given p.o. 2 hours after injection of pyrogenal immediately after the recording of elevated body temperature. Rectal temperature was measured by electric thermometer TERMO before the i.m. injection of pyrogenal (baseline temperature), at the peak of hyperthermia (pyrogenal control) and 30 min. after treatment with test substance, i.e., 2½ hours after the injection of pyrogenal. Ambient temperature in laboratory was kept at 20-22° C.

[4] = system: carrageneen paw oedema; experiment: Acute inflammatory oedema model (carrageneen test); assay type: in vivo, rats; settings: 100 mg/kg p.o. 30 min after carrageneen; 4 h
Protocol: Experiments were conducted using carrageneen test (Winter C et al, Proc Soc Exptl Biol and Med 1962; III(3):544-547. Wei Jia et al, Journal of Ethnopharmacology 2003(89):139-141; Sutharson Lingadurai et al, African Journal of traditional, complementary and alternative medicines, 2007, 4(4):411-416) on 42 rats with body mass of 226-274 g. Single injection of carrageneen (Sigma) solution (1%) in saline (0.1 ml) was introduced in rat hind leg paw. Test substances were introduced p.o. (through catheter into rat stomach) 30 min. after the injection of carrageneen. The volume of paw was measured by oncometer at baseline and 4 hours after the injection of carrageneen.
The percentage of prevention (inhibition of oedema) was calculated according to formula: P(%)=(1−Vo/Vc)×100, where P—Prevention in % (inhibition of oedema) Vo—difference between the paw volume at baseline and at experimental conditions; Vc—analogical difference in control group.

[5] = system: serum lipid levels (C, HDL, LDL, TG); experiment: Acute hyperlipidemia model (Triton WR1339); assay type: in vivo, Wistar rats; settings: TR 250 mg/kg, serum 24 h
Protocol: Male Wistar rats with body mass of 250-270 g were used. Animals were held in groups of 6-8 in climatized rooms at 22±1° C., relative humidity 60±5%, and 12/12-hour light/dark cycle with free access to water and feed. […] The solution of test substances or water was introduced to control and TR group animals p.o. one hour before and 20 hours after the introduction of TR as described below.
Blood for biochemical analysis was collected on the next day (24 hours after the injection of TR) by heart punction under ether narcosis. Serum was separated by centrifugation and analyzed for total cholesterol, HDL, LDL and TG levels by commercial kits.

[6] = system: FeCl3 induced carotid artery thrombosis; experiment: FeCl3 induced carotid artery thrombosis, time till occlusion; assay type: in vivo, Wistar rats; settings: 25 mg/kg p.o.; for Time till occlusion: single dose 2 h before; for Time till occlusion, %: single dose, control = 100
From the text: We chose an experimental thrombosis model based on rat arterial thrombosis induced by FeCl3 (Kurz K et al, Thromb Res 1990, 60:269-280. Wang X, Xu L, Thromb Res 2005,115:95-100). Tissue damage initiated by iron-mediated chemical oxidation predisposes the injured area to platelet adherence and aggregation followed by coagulation activation and fibrin deposition. Male Wistar rats with mass 350-420 g were used in experiments. Animals were kept in groups of 7-8 in adequate cages in climatized room at 22±1° C., relative humidity 60±5% and 12/12-hour light/darkness cycle with free access to feed and water. All experiments were carried out in accordance with the European Community Council's Directive of 24 Nov. 1986 (86/609/EEC) relative to experimental animal care. All efforts were made to minimize animal suffering and to reduce the number of animals used. Rats were randomly divided into various experimental groups, each consisting of not less than seven animals. The vehicle or test compound MD (25 mg/kg), NA (25 mg/kg), MASA (10 mg/kg), ASA (5 mg/kg) and combination MD+NA (25+25 mg/kg), MASA+NA (10+25 mg/kg) and ASA+NA (5+25 mg/kg) was administered by oral route 2 h before the initiation of thrombosis. Parallel experiments were conducted to compare the effects of a single dose of test substance (given 2 h before the initiation of thrombosis) and repeated doses (once daily for 3 days). […] Rats were anaesthetized with pentobarbital sodium (50 mg/kg, i.p. and 10 mg/kg/h) and were placed on a heat controlled operating table throughout the experiment to maintain a body temperature of 37° C. One of the carotid arteries was exposed by cervical incision, separated from the adherent tissue, vagus nerve, and a flow probe (electromagnetic blood flow meter MFV 1200, Nicon Kohden, Japan) was placed on the exposed segment of common carotid artery to record the blood flow. After a stabilization period of 15 min, thrombosis was induced by topically applying (in contact with the adventitial surface of vessel) two pieces (2×1 mm) of Whatman filter paper, soaked in 15% solution of FeCl3. Thrombosis time of carotid artery was recorded as time taken for the complete cessation of the blood flow and has been reported as time till occlusion (TTO).

SMILES | Analgesic index ([1]; 100 mg/kg p.o.) | Animals with positive reaction/total number ([1]; 100 mg/kg p.o. 30 min before acetic acid) | No. of constrictions ([1]; 100 mg/kg p.o., 10 min observation) | Latent period at 30 min after introduction of test substance [2] | Latent period at 60 min after introduction of test substance [2] | Rectal temperature at 30 minutes after treatment [3] | Index, % (inhibition of oedema) [4] | Volume of paw after injection of carrageneen [4] | C ([5]; 150 mg/kg p.o.) | HDL ([5]; 150 mg/kg p.o.) | LDL ([5]; 150 mg/kg p.o.) | TG ([5]; 150 mg/kg p.o.) | Time till occlusion [6] | Time till occlusion, % [6] | C ([5]; 50 mg/kg p.o.) | HDL ([5]; 50 mg/kg p.o.) | LDL ([5]; 50 mg/kg p.o.) | TG ([5]; 50 mg/kg p.o.)
C[N+](C)(C)NCCC(=O)[O-].O.O [MD, 3-(Trimethylammonioamino)propanoate dihydrate] | −0.4 | 8/8 | 22.10 ± 1.47 | 9.5 ± 0.68***^&& s | 8.3 ± 0.53 s | 37.10 ± 0.14 °C | 43% | 2.13 ± 0.12 mL | 345.6 ± 34.1 mg/dL | 63.8 ± 9.3 mg/dL | 273.9 ± 31.6 mg/dL | 1022 ± 80.7 mg/dL | 29.8 ± 2.29 min | 122% |  |  |  | 
O=C(O)c1cccnc1 [NA, nicotinic acid] |  |  |  |  |  |  |  |  |  |  |  |  | 30.3 ± 3.12 min | 124% | 327.5 ± 38.4 mg/dL | 66.5 ± 14.6 mg/dL | 246.3 ± 32.5 mg/dL | 591 ± 43.3 mg/dL
